The test system of one assay is Phytophthora capsici. As to the kind of experiment: Antifungal activity against Phytophthora capsici by paper disk assay. It is filed as functional, organism-based.
The test system of the next assay is A-431. As to the kind of experiment: Cytotoxicity against human A431 cells. It is filed as cell-based.
A short description of assay [1]: Cytotoxicity against human Nakata cells. It counts as cell-based.

Activity calls are given as the source filed them. The calls are words filed in the database; no cut-off is given here.

The term IC50 denotes the concentration needed to halve the response being measured. A high value points to weaker potency.

For `C=CC(=C)CC(=C)/C(C)=C/CC/C=C/C=C(\C)C[C@@H]1O[C@@H](C(O)C(O)C(O)/C(C)=C/C=C/CNC(=O)/C=C/C=C/C(O)CC(O)C(O)C[C@H]2O[C@@H]([C@H]3C[C@H](O)[C@H](O)[C@@](C)(CO)O3)[C@H](O)C(O)[C@@H]2O)[C@@H](O)[C@H](O)[C@H]1O` (stereo partly drawn) [ZOOXANTHELLAMIDE D], the result in the assay with Phytophthora capsici was inactive. Further, the figures for the IC50 (in the assay on A-431; in assay [1]) were 4.5 µM and 6.6 µM, respectively.

The values are drawn from ChEMBL document CHEMBL1142950, “Zooxanthellamide D, a polyhydroxy polyene amide from a marine dinoflagellate, and chemotaxonomic perspective of the Symbiodinium polyols” (J Nat Prod, 2007).
